Source: patent US9828576B2, “Cell culture” (National University of Singapore, priority 2012, dated 2017)
Entries after “also recorded” stand apart in the source; their conditions may differ.

Tested on: bile canaliculi of hepatocyte couplets
Assay: Bile canaliculi (BC) morphology of hepatocyte couplets in F/F microwells after drug treatment (F-actin staining, confocal imaging)
Type: cell-based, rat
Details: for degree of folding r of BC / vertical aspect ratio i of BC: F/F microwells with drug, compared with control F/F microwells (FIG. 6D); for BC morphology: hepatocytes in F/F microwells
Description: For control, hepatocytes cultured for 48 hours in microwells were fixed in 4% para-formaldehyde (PFA) for 30 minutes. For ±Blebbistatin (Merck, 203390) or Y27632 (Sigma, Y0503) treatments, drugs were added 4 h before fixation, while soluble RGD (Sigma, G5646) was incubated with hepatocytes overnight. After fixation, the cells were rinsed by PBS and permeabilized for 30 min in TBST (0.2% Triton-X in TBS). The permeabilized cells were blocked with 1% BSA in TBST for 4 h and incubated overnight with pan-Cadherin antibody (sigma, C1821) and anti-ZO-1 antibody (life technology, 61-7300) at 4° C. as instructed in manuals. After rinsed with TBST, the cells were incubated in secondary antibodies (Life Technology, A10040 and A-31571) and phalloidin-alexa 488 (Life Technology, A12379) for 1 h in dark at room temperature. After rinsed with TBST again and incubated shortly with DAPI (Sigma, D9564), cells were mounted in mounting medium (DAKO, S3023). 3D stack of confocal microscopy images were acquired with 100×NA1.4 oil lens on a Nikon A1R Confocal Microscope.
The selected slices of image stacks were reconstructed as maximum intensity projection or orthogonal section view. Manual segmentation was applied based on F-actin signal, because F-actin provides a better definition of BC boundaries, compared with ZO-1 (FIG. 11). Several features, such as parameter, thickness, horizontal spin size and area of bile canaliculi, were extracted subsequently.
When cells adhered to the side of microwell only (F/P configuration), hepatocytes positioned side by side (FIG. 5C, 5D). […] To confirm the importance of cell-ECM adhesion in obtaining flat tubular BC, we treated the hepatocytes in F/F microwells on day 1 with soluble RGD peptides (250 μM, overnight) that antagonized the integrin-mediated cell-ECM adhesion while keeping the chemical signalling unperturbed. Indeed, as cells detached from the microwells, their BC rounded up to be morphologically equivalent to those observed in the P/F case (FIG. 6A).
Therefore, we tested whether actomyosin contractility was required for the differential control of BC morphology by the spatial organization of cell-ECM adhesion. […] The resulting morphologies were similar to those obtained in the P/F configuration (FIG. 6B, 6C).
The BC morphologies in different conditions were quantitatively assessed by two dimensionless parameters: the degree of folding and vertical aspect ratio. The degree of folding r=P^2/(4πA) was evaluated by measuring the ratio of the BC projected perimeter P to the projected area A. This morphological index r ranges from 1 (circle) upward (folded tubular structures). The vertical aspect ratio i was calculated as the ratio of the BC maximal height over maximal elongation in the XY plane. Higher vertical aspect ratio represents a thicker BC.

| SMILES | degree of folding r of BC | vertical aspect ratio i of BC | BC morphology (Y27632 10 μM for 4 hours) | BC morphology (blebbistatin 100 μM for 4 hours) | BC morphology (blebbistatin 100 μM for 4 hours, listed as blebbistatin +/−) |
| --- | --- | --- | --- | --- | --- |
| C[C@@H](N)[C@H]1CC[C@H](C(=O)Nc2ccncc2)CC1 [Y27632] | lower | higher | rounded up; also recorded: converted tubular BC into spherical ones | – | – |
| Cc1ccc2c(c1)C(=O)C1(O)CCN(c3ccccc3)C1=N2 (stereo not shown) [blebbistatin] | lower | higher | – | rounded up | converted tubular BC into spherical ones |
